Measured values taken from patent US20230172923A1, “METHODS OF TREATING CYTOKINE-RELATED ADVERSE EVENTS” (BRISTOL-MYERS SQUIBB COMPANY, priority 2020, published 2023).

What was measured:
Assay type in all cases: cell-based, human
IL1-beta = test: LPS-induced IL1-beta secretion from PBMCs, overnight pre-treatment (MSD); settings: overnight 1000 nM lenalidomide, 100 nM pomalidomide, 10 nM iberdomide or 1 nM Compound 1; LPS 24 hours
Description: Fresh PBMCs isolated from healthy volunteers were seeded at a concentration of 1×10^6 cells/ml and treated with the indicated concentration of IMiD drugs/CELMoD agents or DMSO overnight before stimulation with the indicated concentration of LPS. After 24 hours, the cell culture media was collected and IL-6, TNF-alpha and IL1-beta levels in the supernatant were assessed using an MSD assay. ULOQ = Upper limit of quantification.
Fresh peripheral blood mononuclear cells (PBMCs) were isolated from the blood (buffy coat) of healthy human volunteers by Ficoll based cell separation. The isolated PBMCs were seeded at a concentration of 1×10^6 cells/ml and treated with 1000 nM lenalidomide, 100 nM pomalidomide, 10 nM iberdomide, 1 nM Compound 1 (CC-92480) or control DMSO, overnight (~17 hours). The next morning, the PBMCs were stimulated with various concentrations of LPS (Lipopolysaccharides from Escherichia coli O111:B4).
After 24 hours, the cell culture media was collected from the control and stimulated cells, spun down at 300 g for 5 minutes to remove cells and the supernatant was subjected to cytokine analysis to quantify secreted levels of IL-6, TNF-alpha (TNF-α) and IL1-beta (IL-1β) using an MSD assay (see e.g. FIGS. 8A-C).

NCI-H929 cells = test: CC-93269 mediated cytotoxicity assay with chronically stimulated T-cells, NCI-H929 target cells (IncuCyte); settings: anti-CD3/CD28 7 days with 100 nM pomalidomide, 10 nM iberdomide or 1 nM CC-92480; CC-93269 47 pM; E:T 1:4
Description: Cell growth kinetics of A) NCI-H929 and B) OPM-2 cells in CC-93269 (47 pM) cytotoxicity assays on the IncuCyte® S3 Live-Cell Analysis System. Healthy donor T-cells were used as effector cells with or without chronic stimulation with anti-CD3/CD28 (7 days) in the presence of DMSO or CM agents (100 nM Pomalidomide, 10 nM CC-220 or 1 nM CC-92480). T-cells and NCI-H929 cells were co-cultured at E:T ratios of 1:4 (NCI-H929) or 1:2 (OPM-2). […] In contrast, prior exposure to CM agents prevented functional TBMS cell exhaustion and CC-93269 activity was similar or better to those observed with freshly thawed T-cells. Values shown represent the mean ± standard deviation of AUC values of 2-3 replicates from the same experiment.
To evaluate the effects of Cereblon modulating (CM) agents on T-cell function after chronic stimulation (i.e. mimicking T cell exhaustion), CD3+ enriched healthy donor T-cells were stimulated with anti-CD3/CD28 in the presence of DMSO (control), 100 nM pomalidomide, 10 nM iberdomide (CC-220) or 1 nM Compound 1 (CC-92480) for 7 days. Prolonged and repetitive anti-CD3/CD28 stimulation of T-cells results in functional T-cell exhaustion in vitro.
The chronically stimulated T-cells were then used in CC-93269 mediated cytotoxicity assays with NCI-H929 or OPM-2 multiple myeloma (MM) target cells. The T-cells were washed to remove compounds, and mixed with fluorescently labelled MM cell lines (NCI-H929, OPM-2) at optimized effector-to-target (E:T) ratios (1:2 or 1:4) in the presence of fixed concentrations of CC-93269 (47 pM). Freshly thawed T-cells (i.e. non-exhausted T-cells) from the same donor were used as control effector cells. In this experimental cytotoxicity assay setup, the number of target cells was continuously monitored using the IncuCyte® S3 Live-Cell Analysis System for a minimum of 10 days. Cell culture supernatants were taken from wells from subsequent CC-93269 mediated cytotoxicity assays at 3 days after mixing with MM target cells. CD3+ T cells from 2 or 3 independent healthy donors were tested for each MM cell line.

IL-6 [1] = test: LPS-induced IL-6 secretion from isolated monocytes (MSD); settings: overnight (~17 hours) 1000 nM lenalidomide, 100 nM pomalidomide, 10 nM iberdomide or 1 nM Compound 1; LPS 4 hours
Description: Monocytes from healthy volunteers were seeded at a concentration of 1×10^6 cells/ml and treated with the indicated concentration of IMiD/CELMoD agents overnight (~17 hours). The next morning, the monocytes were incubated with the indicated concentration of LPS for 4 hours, before IL-6 levels in the supernatant were assessed using an MSD assay.
eripheral blood mononuclear cells (PBMCs) were isolated from the blood of four healthy human donors by Ficoll cell separation, and then monocytes were isolated from these PBMCs by negative selection. The enriched monocytes were seeded at a concentration of 1×10^6 cells/ml and incubated overnight (~17 hours) with 1000 nM lenalidomide, 100 nM pomalidomide, 10 nM iberdomide or 1 nM Compound 1, or control DMSO (0.001%), before stimulation with various concentrations of LPS for IL-6 secretion.
After 4 hours, the cell culture was spun down at 300 g for 5 minutes to remove cells, and the supernatant was subjected to Meso Scale Discovery (MSD) analysis to quantify secreted IL-6.

[2] = test system: IL-6, IL-8, IL-1β, GM-CSF, MDC, MIP-1α, MIP-1β and TNF-α; test: LPS-induced secretion of proinflammatory cytokines from PBMCs (whole multiplex panel, result in words); settings: pre-treatment 1 hour, 1 ng/ml LPS 18 hours
Description: Peripheral blood mononuclear cells (PBMCs) from healthy volunteers were seeded at a concentration of 2×10^6 cells/ml and treated with the indicated concentrations of IMiD compounds or control DMSO (0.25%) for 1 hour, before stimulation with 1 ng/ml LPS. After 18 hours, proinflammatory cytokine levels in the supernatant were assessed by multiplex cytokine analysis.
Peripheral blood mononuclear cells (PBMCs) were isolated from the blood of healthy human donors by Ficoll cell separation. The PBMCs were seeded at a concentration of 2×10^6 cells/ml and treated for 1 hour at 37° C. with various concentrations of IMiD compounds or control DMSO (0.25%), before stimulation with 1 ng/ml LPS for 18 hours at 37° C.
Supernatant samples were subjected to multiplex cytokine analysis (Luminex IS100 instrument) to quantify secreted levels of IL-6, IL-8, IL1-beta (IL-1β), GM-CSF, MDC, MIP-1alpha (MIP-1α), MIP-1beta (MIP-1β) and TNF-alpha (TNF-α) (see e.g. FIGS. 7A-C).

IL-6 [3] = test: LPS-stimulated PBMC cytokine production, multiplex cytokine analysis: IL-6; settings: Homo sapiens, PBMC, PBMC 2×10^6 cells/ml, compound 1 hour, then 1 ng/ml LPS 18 hours
Description: Peripheral blood mononuclear cells (PBMCs) were isolated from the blood of healthy human donors by Ficoll cell separation. […] Supernatant samples were subjected to multiplex cytokine analysis (Luminex IS100 instrument) to quantify secreted levels of IL-6, IL-8, IL1-beta (IL-1β), GM-CSF, MDC, MIP-1alpha (MIP-1α), MIP-1beta (MIP-1β) and TNF-alpha (TNF-α) (see e.g. FIGS. 7A-C). IC50 (half maximal inhibitory concentration) values were calculated to measure the potency of each IMiD compound in inhibiting LPS-stimulated secretion of each cytokine (see Table 25).

Compound: N#Cc1ccc(N2CCN(Cc3ccc(COc4cccc5c4CN(C4CCC(=O)NC4=O)C5=O)cc3)CC2)c(F)c1 (stereo not drawn) [Compound 1, 4-(4-(4-(((2-(2,6-dioxopiperidin-3-yl)-1-oxoisoindolin-4-yl)oxy)methyl)benzyl)piperazin-l-yl)-3-fluorobenzonitrile]
- LPS-induced secretion of IL-1β from PBMCs (IL1-beta): reduces
- cytolytic function of chronically stimulated T-cells in CC-93269-directed killing of NCI-H929 cells (NCI-H929 cells): beneficial effects on the cytolytic function of T-cells
- LPS-induced IL-6 secretion from monocytes (IL-6 [1]): diminished

Compound: O=C1CC[C@H](N2Cc3c(OCc4ccc(CN5CCOCC5)cc4)cccc3C2=O)C(=O)N1 [Iberdomide, (S)-3-(4-((4-(morpholinomethyl)benzyl)oxy)-1-oxoisoindolin-2-yl)piperidine-2,6-dione]
- LPS-induced secretion of proinflammatory cytokines from PBMCs (effect in words) [2]: inhibited
- LPS-induced secretion of IL-1β from PBMCs (IL1-beta): reduces
- cytolytic function of chronically stimulated T-cells in CC-93269-directed killing of NCI-H929 cells (NCI-H929 cells): beneficial effects on the cytolytic function of T-cells
- LPS-induced IL-6 secretion from monocytes (IL-6 [1]): diminished
- IC50 (IL-6 [3]): 0.0038 µM

Compound: Nc1cccc2c1CN(C1CCC(=O)NC1=O)C2=O (centres unmarked) [Lenalidomide, 3-(4-amino-1-oxo-2,3-dihydro-1H-isoindol-2-yl) piperidine-2,6-dione]
- LPS-induced secretion of proinflammatory cytokines from PBMCs (effect in words) [2]: inhibited
- LPS-induced secretion of IL-1β from PBMCs (IL1-beta): reduces
- LPS-induced IL-6 secretion from monocytes (IL-6 [1]): diminished
- IC50 (IL-6 [3]): 1.2 µM

Compound: Nc1cccc2c1C(=O)N(C1CCC(=O)NC1=O)C2=O (centres unmarked) [Pomalidomide, 4-amino-2-(2,6-dioxopiperidine-3-yl)isoindoline-1,3-dione]
- LPS-induced secretion of proinflammatory cytokines from PBMCs (effect in words) [2]: inhibited
- LPS-induced secretion of IL-1β from PBMCs (IL1-beta): reduces
- cytolytic function of chronically stimulated T-cells in CC-93269-directed killing of NCI-H929 cells (NCI-H929 cells): beneficial effects on the cytolytic function of T-cells
- LPS-induced IL-6 secretion from monocytes (IL-6 [1]): diminished
- IC50 (IL-6 [3]): 0.059 µM
